Source: ChEMBL document CHEMBL1150522, “Preparation and antifungal activity of fusacandin analogs: C-6 sidechain esters” (1996)
In brackets after ≈: the same amount, converted by molar mass.

How the values were obtained:
Format in all cases: functional
Candida albicans [1] = experiment: Minimum inhibitory concentration against Candida albicans (CCH 442) in the presence of serum
Candida albicans [2] = experiment: Minimum inhibitory concentration against Candida albicans (ATCC 10231) in the absence of serum.
Candida albicans [3] = experiment: Minimum inhibitory concentration against Candida albicans (ATCC 10231) in the presence of serum
Candida albicans [4] = experiment: Minimum inhibitory concentration against Candida albicans (ATCC 38247) in the absence of serum.
Candida albicans [5] = experiment: Minimum inhibitory concentration against Candida albicans (ATCC 38247) in the presence of serum
Candida albicans [6] = experiment: Minimum inhibitory concentration against Candida albicans (ATCC 62376) in the absence of serum.
Candida albicans [7] = experiment: Minimum inhibitory concentration against Candida albicans (ATCC 62376) in the presence of serum
Candida albicans [8] = experiment: Minimum inhibitory concentration against Candida albicans (CCH 442) in the absence of serum.
Candida albicans [9] = experiment: Minimum inhibitory concentration against Candida albicans (579a) in the absence of serum.
Candida albicans [10] = experiment: Minimum inhibitory concentration against Candida albicans (579a) in the presence of serum

MIC (Candida albicans [1])	MIC (Candida albicans [2])	MIC (Candida albicans [3])	MIC (Candida albicans [4])	MIC (Candida albicans [5])	MIC (Candida albicans [6])	MIC (Candida albicans [7])	MIC (Candida albicans [8])	MIC (Candida albicans [9])	MIC (Candida albicans [10])	SMILES
6.25 µg/mL	> 100 µg/mL	12.5 µg/mL	> 100 µg/mL	6.25 µg/mL	> 100 µg/mL	12.5 µg/mL	> 100 µg/mL	> 100 µg/mL	6.25 µg/mL	CCCCC/C=C/C=C/[C@@H](O)C/C=C/C=C/C(=O)O[C@@H]1[C@@H](O)[C@H](c2c(O)cc(O)cc2CO)O[C@H](CO)[C@H]1O[C@@H]1O[C@H](COC(=O)c2ccc(-c3ccc(O)cc3)cc2)[C@H](O)[C@H](O)[C@H]1O[C@@H]1O[C@H](CO)[C@H](O)[C@H](O)[C@H]1O
1.56 µg/mL	> 100 µg/mL	1.56 µg/mL	> 100 µg/mL	1.56 µg/mL	> 100 µg/mL	3.12 µg/mL	> 100 µg/mL	> 100 µg/mL	0.78 µg/mL	CCCCC/C=C/C=C/[C@@H](O)C/C=C/C=C/C(=O)O[C@@H]1[C@@H](O)[C@H](c2c(O)cc(O)cc2CO)O[C@H](CO)[C@H]1O[C@@H]1O[C@H](COC(=O)/C=C/C=C/CCCCCC)[C@H](O)[C@H](O)[C@H]1O[C@@H]1O[C@H](CO)[C@H](O)[C@H](O)[C@H]1O
6.25 µg/mL	50 µg/mL (≈ 46.2 µM)	6.25 µg/mL	100 µg/mL (≈ 92.3 µM)	6.25 µg/mL	50 µg/mL (≈ 46.2 µM)	1.56 µg/mL	50 µg/mL (≈ 46.2 µM)	50 µg/mL (≈ 46.2 µM)	1.56 µg/mL	CCCCC/C=C/C=C/[C@@H](O)C/C=C/C=C/C(=O)O[C@@H]1[C@@H](O)[C@H](c2c(O)cc(O)cc2CO)O[C@H](CO)[C@H]1O[C@@H]1O[C@H](COC(=O)c2ccc(-c3ccccc3OC)cc2)[C@H](O)[C@H](O)[C@H]1O[C@@H]1O[C@H](CO)[C@H](O)[C@H](O)[C@H]1O
1.56 µg/mL	50 µg/mL (≈ 48.7 µM)	3.12 µg/mL	> 100 µg/mL	0.78 µg/mL	25 µg/mL (≈ 24.3 µM)	3.12 µg/mL	50 µg/mL (≈ 48.7 µM)	50 µg/mL (≈ 48.7 µM)	0.78 µg/mL	CCCCC/C=C/C=C/[C@@H](O)C/C=C/C=C/C(=O)O[C@@H]1[C@@H](O)[C@H](c2c(O)cc(O)cc2CO)O[C@H](CO)[C@H]1O[C@@H]1O[C@H](COC(=O)c2ccc3ccccc3c2)[C@H](O)[C@H](O)[C@H]1O[C@@H]1O[C@H](CO)[C@H](O)[C@H](O)[C@H]1O
